This note sets out measurements from ChEMBL document CHEMBL1687860, “Ring B aromatic norpimarane glucoside from a Xylaria sp” (J Nat Prod, 2011).

The structures appear in SMILES notation.

One assay concerns KB. As to the kind of experiment: Cytotoxicity against human KB cells by resazurin microplate assay. The assay is classed as functional, cell-based. In general terms: Alamar Blue is a resazurin reagent that responds to reducing activity.
Another assay has as its system MCF7. As to the kind of experiment: Cytotoxicity against human MCF7 cells by resazurin microplate assay. The assay is classed as functional, cell-based.
Another assay deals with NCI-H187. As to the kind of experiment: Cytotoxicity against human NCI-H187 by resazurin microplate assay. Type of assay: functional, cell-based.
In another assay the test system is Vero. In words: Cytotoxicity against african green monkey Vero cells by green fluorescent protein microplate assay. The assay is classed as cell-based. Conditions: Chlorocebus sabaeus.

The term IC50 denotes the point on the concentration scale where inhibition reaches its midpoint. As for `C=C[C@@]1(C)CCc2c3c(c(O)c(O[C@H]4O[C@H](CO)[C@@H](O)[C@H](O)[C@H]4O)c2[C@H]1O)C(C)(C)CCC3` [XYLOPIMARANE], the IC50 with KB is 1000 nM; with MCF7, 13 µM; in the assay on NCI-H187, 65 µM; in the assay on Vero, 41 µM.
